# According to patent US20260008760A1, “DIPEPTIDYL PEPTIDASE 1 INHIBITORS AND USES THEREOF” (Insmed Incorporated, priority 2024, published 2026):
# pIC50: −log10 of the molar value.
# Columns and labels:
# DPP1 in HL-60 cells = DPP1 in HL-60 cells (Homo sapiens, UniProt P53634); experiment: DPP1 Cell IC50 assay; format: cell-based; set-up: host or cells: HL-60 cells; conditions: 60 min pre-incubation, H-Gly-Phe-AFC substrate, average of n runs, read-out: Avg. IC50 (DPP1 Cell IC50 value ranges)
# Procedure, shortened: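 Intracellular DPP1 activity read as AFC fluorescence (Ex/Em 400/505 nm) after 30 min with H-Gly-Phe-AFC (500 μM stock), following 60 min compound pre-incubation at 37° C with HL-60 cells at 5×10^5 live cells per mL in PBS. IC50 by 4-parameter fit against DMSO-only controls.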
# human DPP1 enzyme = human DPP1 enzyme (Homo sapiens, UniProt P53634); experiment: Human DPP1 Enzyme IC50 Assay; format: biochemical; set-up: was first proteolytically processed into its mature form using recombinant human cathepsin L; purchased R&D Systems; conditions: activated recombinant human DPP1, 400 μM H-Gly-Arg-AMC, 10 minutes pre-incubation at 37° C., pH 6.0; average of n runs; read-out: Avg. IC50 (Human DPP1 enzyme IC50 value ranges)
# Sequence of human DPP1 enzyme (P53634 25-134 limits assumed): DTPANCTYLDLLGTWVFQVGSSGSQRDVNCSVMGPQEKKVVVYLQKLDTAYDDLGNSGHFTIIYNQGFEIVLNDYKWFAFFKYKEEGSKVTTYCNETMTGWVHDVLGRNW
# Sequence of human DPP1 enzyme (P53634 231-394 limits assumed): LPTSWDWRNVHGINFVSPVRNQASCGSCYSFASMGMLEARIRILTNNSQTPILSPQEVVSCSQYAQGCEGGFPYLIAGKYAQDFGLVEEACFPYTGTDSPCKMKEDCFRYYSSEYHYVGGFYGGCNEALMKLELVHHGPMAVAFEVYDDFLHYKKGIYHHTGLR
# Sequence of human DPP1 enzyme (P53634 395-463 limits assumed): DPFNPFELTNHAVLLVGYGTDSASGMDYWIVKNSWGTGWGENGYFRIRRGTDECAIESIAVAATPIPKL
# Procedure, shortened: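 IC50 came from a four-parameter fit of activity relative to no-compound control, with fluorescence (Ex 350/Em 450 nm) read every 5 min for 90 min at 37 °C using 400 μM final H-Gly-Arg-AMC. Cathepsin L-matured human recombinant DPP1 was preincubated 10 min with compound at pH 6.0 (MES, DTT, 1% DMSO).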
# Sequence of DPP1 in HL-60 cells (P53634 25-463): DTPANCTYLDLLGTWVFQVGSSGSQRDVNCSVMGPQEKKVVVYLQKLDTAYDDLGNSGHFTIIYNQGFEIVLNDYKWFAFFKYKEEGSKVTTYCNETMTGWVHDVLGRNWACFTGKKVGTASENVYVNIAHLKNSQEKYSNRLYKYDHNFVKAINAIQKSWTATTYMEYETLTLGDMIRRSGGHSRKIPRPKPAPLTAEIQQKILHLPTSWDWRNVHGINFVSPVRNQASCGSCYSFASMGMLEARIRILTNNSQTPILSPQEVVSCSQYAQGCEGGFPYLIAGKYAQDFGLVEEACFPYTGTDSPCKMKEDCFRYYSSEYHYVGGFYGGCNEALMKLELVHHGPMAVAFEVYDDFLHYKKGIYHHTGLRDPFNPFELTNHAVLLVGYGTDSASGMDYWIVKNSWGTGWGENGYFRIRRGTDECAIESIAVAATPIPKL
SMILES,pIC50 (DPP1 in HL-60 cells),pIC50 (human DPP1 enzyme)
N#C[C@H](Cc1ccc(-c2ccc3c(c2)[C@]2(CCCN(c4ccsc4)C2)SC3)cc1)NC(=O)[C@@H]1CNCCCO1 [Compound I13],< 8.60,< 7.82
N#C[C@H](Cc1ccc(-c2ccc3c(c2)C[C@]2(CCN(c4nccs4)C2)OC3)cc1)NC(=O)[C@@H]1CNCCCO1 [Compound I14],< 8.60,< 7.82
N#C[C@H](Cc1ccc(-c2ccc3c(c2)[C@]2(CCCN(C#N)C2)SC3)cc1)NC(=O)[C@@H]1CNCCCO1 [Compound I15],< 8.60,< 7.82
N#C[C@H](Cc1ccc(-c2ccc3c(c2)C2(CCN(c4nccs4)CC2)SC3)cc1)NC(=O)[C@@H]1CNCCCO1 [Compound I16],< 8.60,< 7.82
N#C[C@H](Cc1ccc(-c2ccc3c(c2)[C@]2(CCN(C#N)C2)SC3)cc1)NC(=O)[C@@H]1CNCCCO1 [Compound I18],< 8.60,< 7.82
N#C[C@H](Cc1ccc(-c2ccc3c(c2)[C@]2(CCCN(c4nccs4)C2)COC3)cc1)NC(=O)[C@@H]1CNCCCO1 [Compound I20],< 8.60,< 7.82

# Now from value to compound:
pIC50 (DPP1 in HL-60 cells),pIC50 (human DPP1 enzyme),SMILES
< 8.60,7.82 to 8.30,N#C[C@H](Cc1ccc(-c2ccc3c(c2)[C@@]2(CCN(C4COC4)C2)COC3)cc1)NC(=O)[C@@H]1CNCCCO1 [Compound I6]
< 8.60,< 7.82,N#C[C@H](Cc1ccc(-c2ccc3c(c2)C2(CCN(C4CC4)CC2)SCC3)cc1)NC(=O)[C@@H]1CNCCCO1 [Compound I7]
< 8.60,7.82 to 8.30,N#C[C@H](Cc1ccc(-c2ccc3c(c2)[C@@]2(CCCN(C4CCCCC4)C2)CS3)cc1)NC(=O)[C@@H]1CNCCCO1 [Compound I9]
< 8.60,7.82 to 8.30,N#C[C@H](Cc1ccc(-c2ccc3c(c2)[C@@]2(CCCN(C4CC4)C2)COC3)cc1)NC(=O)[C@@H]1CNCCCO1 [Compound I12]
